Earlier results on nine compounds are cited in US20010026813A1, “Extract from scutellariae radix having neuroprotective effects and pharmaceutical preparations containing the same” (priority 2000, published 2001).

In the data set the test system is 4-VO models.

Where two headings read alike, the source gives them in different places.

For `OC(CN1CCC(Cc2ccc(F)cc2)CC1)c1ccc(Cl)cc1` (stereo not drawn) [eliprodil], the defensive level (20 mg/kg, i.p.) is 25%.
With `C[C@]12N[C@H](Cc3ccccc31)c1ccccc12` [MK-801], the defensive level (2 mg/kg, i.p.) was 24%.
For the compound `CC1=NN=C(c2ccc(N)cc2)c2cc3c(cc2C1)OCO3` [GYK152466], the defensive level (dose not given) is listed as 11%.
Consider `CNC(=O)N1N=C(c2ccc(N)cc2)c2cc3c(cc2CC1C)OCO3` (stereo not drawn) [LY300168], for which the defensive level (dose not given) is recorded as 23%.
In the case of `NS(=O)(=O)c1cccc2c1c([N+](=O)[O-])cc1nc(O)c(O)nc12` [NBQX], the defensive level (30 mg/kg, i.p.) is on record as 42%.
Regarding `O=[N+]([O-])c1cccc2c(Br)n[nH]c12` [3-bromo-7-nitroindazole], the defensive level (dose not given) is on record as 20%.
Take `O=[N+]([O-])c1cccc2cn[nH]c12` [Example 7-NI]: under “dose not given”, the defensive level is recorded as 17.5%.
With `COC(=O)[C@@H](N)CCCNC(=N)N[N+](=O)[O-]` [L-NAME], for the setting “dose not given”, the defensive level is given as 23%.
As to `CCNCc1cc(C(C)(C)C)c(O)c(C(C)(C)C)c1` [LY231617], under “dose not given”, the defensive level is on record as 25-30%.
